In patent US8940310B2, “Methods of treatment using TLR7 and/or TLR9 inhibitors” (Dynavax Technologies Corporation, priority 2010, dated 2015):
Marks after values point to notes of the source that are not given here.

Assay: High dosages of IRPs in mice (weight, histology)
Assay type: in vivo, BALB/c mice
Settings: ISS control (5 mg/kg)
Experimental: To test the activity of IRPs at high dosages in mice, IRPs or a control (saline) were subcutaneously administered to BALB/c mice at a dosage of 4 mg/kg, 20 mg/kg, 50 mg/kg, or 100 mg/kg on days 1, 4, 7, and 10 (n=5 per group). Mice were weighed prior to administration and on days 2, 4, 7, 9, and 11. Serum cytokines were assayed at two hours post the first and third injections and 24 hours post the fourth injection. Organs were harvested at the end of the study, and organ weights and tissues levels of the oligonucleotides were determined. In addition, histological evaluation of the liver, kidney, and heart was performed.
Mice were weighed prior to administration and on days 1, 3, 4, 6, 7, and 9. Organs were harvested at the end of the study, and organ weights and tissues levels of the oligonucleotides were determined. In addition, histological evaluation of the liver, kidney, and heart was performed.

5′-TGACTGTGAACGTTCGAGATGA-3′ [SEQ ID NO:157, reference compound]
Heart: Chronic inflammation, number of animals: 2 | Heart: Mineralization, number of animals: 1 | Heart: Chronic inflammation, mean severity score (0 = no change to 4 = severe): 2.0 | Heart: Mineralization, mean severity score (0 = no change to 4 = severe): 4.0 | Liver: Liver changes, mean severity score (0 = no change to 4 = severe): 2.0 | Liver: Mixed cell infiltration, mean severity score (0 = no change to 4 = severe): 3.0 | Right Kidney: Tubular basophilia, mean severity score (0 = no change to 4 = severe): 2.0 | Liver: Liver changes, number of animals (6 animals): 6 | Liver: Mixed cell infiltration, number of animals (6 animals): 6 | Liver: No significan changes, number of animals (6 animals): 0 | Right Kidney: No significant changes, number of animals (6 animals): 5 | Right Kidney: Tubular basophilia, number of animals (6 animals): 1 | Right Kidney: Tubular changes, number of animals (6 animals): 0 | Heart: No significant changes, number of animals (tissue missing in two animals): 1**
